Laboratory results: patent US20230150986A1, “ANTAGONISTS OF THE MUSCARINIC ACETYLCHOLINE RECEPTOR M4” (Vanderbilt University, priority 2019, published 2023)

Assays:
[1] = biological target: T1, cytochrome P450 2C9 (Homo sapiens, UniProt P11712); assay: Cytochrome P450 cocktail inhibition assay, 2C9 (diclofenac); assay type: in vitro ADME; settings: human liver microsomes 0.1 mg/mL; read-out: CYP Inhibition (2C9)
T1 construct: human liver microsomes (HLM; 0.1 mg/mL); from tissue; host or cells: human liver microsomes
Experimental: Solutions of substrates for cytochrome P450 enzymes (1A2: Phenacetin, 10 μM; 2C9: Diclofenac, 5 μM; 2D6: Dextromethorphan, 5 μM; 3A4: Midazolam, 2 μM; as a mixture), test compound (VU6028418; multiple concentrations), and the positive control for pan-P450 inhibition (miconazole; multiple concentrations) were prepared. A reaction mixture of assay buffer (100 mM Kpi at pH 7.4), human liver microsomes (HLM; 0.1 mg/mL), and the substrate mixture were aliquoted into a 96-deepwell plate. The test compound and control were then added to the plate such that the final concentration of test compound ranged from 0.1-30 μM (two replicates per concentration). The assay plate was vortexed (briefly) and pre-incubated at 37° C. in an orbital shaker for 15 minutes. The reaction was initiated by addition of NADPH (1 mM, final concentration) and continued for 8 min before it was quenched by acetonitrile (2× volume) containing an LCMS internal standard (carbamazepine, 50 nM). The plate was then centrifuged (4000 rcf, 4° C., 10 min), and the resulting supernatant was diluted with water (1× volume) for LC-MS/MS. Assay samples were analyzed via electrospray ionization on an AB Sciex API-4000 (Foster City, Calif.) triple-quadrupole mass spectrometer coupled to Agilent Technologies 1290 Infinity series pumps (Santa Clara, Calif.), and a Leap Technologies CTC PAL auto -sampler (Carrboro, NC). Analytes were separated by gradient elution on a Phenomenex Kinetex (C18 2.1×50 mm 5 μm) column (Torrance, Calif.) thermostated at 40° C. The HPLC mobile phase A was 0.1% formic acid in water (pH unadjusted), and the mobile phase B was 0.1% formic acid in acetonitrile (pH unadjusted). […] The total run time was 2.5 min and the HPLC flow rate was 0.5 mL/min. The source temperature was set at 500° C. and mass spectral analyses were performed using multiple reaction monitoring (MRM) with mass transitions specific to each substrate's metabolite utilizing a Turbo-Ionspray® source in positive ionization mode (5.0 kV spray voltage). The test compound and control IC50 values for each enzyme were obtained by quantitating the inhibition of metabolite formation for each substrate. A 0 μM test compound (or control) conditions represented 100% enzymatic activity, and the effect of increasing test compound concentrations on enzymatic activity was then calculated from the % of control activity. Inhibition curves were fitted using XLfit 5.2.2 (four-parameter logistic model, equation 201) in order to calculate the concentration that produced half-maximal inhibition (IC50) of each enzyme.

[2] = tested on: Sprague-Dawley rats; assay: Haloperidol-induced catalepsy assay; assay type: in vivo, rat; settings: for reversal of catalepsy: haloperidol 1.5 mg/kg i.p.
Experimental: Drugs. Compound 1 was weighed and 2% Tween 80/0.5% methylcellulose were placed on top of the compound in serum bottles. This was sonicated for about an hour. All doses were administrated at 10 mL/kg p.o. The final solution is a suspension. Haloperidol was dissolved in 1 mL of 8% lactic acid and taken to 50 mL with sterile water. Haloperidol was dosed at 1 mL/kg i.p.
1. Haloperidol 1.5 mg/kg, i.p.
2. Compound 1, 0.3-3 mg/kg, p.o.
3. Vehicle (2% tween 80/0.5% MC), p.o.
Animals. Male Sprague-Dawley rats weighing between 290-326 grams (Envigo, Inc., Indianapolis, Ind.) were used. They were housed in the animal care facility certified by the American Association for the Accreditation of Laboratory Animal Care (AAALAC) under a 12-hour light/dark cycle (lights on: 7 a.m.; lights off: 7 p.m.) and had free access to food and water. The experimental protocols performed during the light cycle were approved by the Institutional Animals Care and Use Committee of Vanderbilt University and conformed to the guidelines established by the National Research Council Guide for the Care and Use of Laboratory Animals.
Haloperidol-induced catalepsy. Adult male Sprague-Dawley rats are injected with 1.5 mg/kg of haloperidol i.p. Thirty minutes later, the animals are administered 0.3-3 mg/kg of Compound 1 or vehicle. Cataleptic behavior is determined 60 minutes later by placing the forelimbs on a bar raised 6 cm above the table and recording the amount of time it takes for the rat to withdraw the forelimbs with a cutoff of 60 seconds. Data are expressed as mean latency to withdraw ±SEM or percent inhibition of catalepsy ±SEM.
Data Analysis. The data for these dose-response studies were analyzed by a one way analysis of variance. If there was a main effect of dose, then each dose group was compared with each of the other treated groups using GraphPad Prism (version 4.03, GraphPad, La Jolla, Calif.).

T1 sequence (P11712 whole entry): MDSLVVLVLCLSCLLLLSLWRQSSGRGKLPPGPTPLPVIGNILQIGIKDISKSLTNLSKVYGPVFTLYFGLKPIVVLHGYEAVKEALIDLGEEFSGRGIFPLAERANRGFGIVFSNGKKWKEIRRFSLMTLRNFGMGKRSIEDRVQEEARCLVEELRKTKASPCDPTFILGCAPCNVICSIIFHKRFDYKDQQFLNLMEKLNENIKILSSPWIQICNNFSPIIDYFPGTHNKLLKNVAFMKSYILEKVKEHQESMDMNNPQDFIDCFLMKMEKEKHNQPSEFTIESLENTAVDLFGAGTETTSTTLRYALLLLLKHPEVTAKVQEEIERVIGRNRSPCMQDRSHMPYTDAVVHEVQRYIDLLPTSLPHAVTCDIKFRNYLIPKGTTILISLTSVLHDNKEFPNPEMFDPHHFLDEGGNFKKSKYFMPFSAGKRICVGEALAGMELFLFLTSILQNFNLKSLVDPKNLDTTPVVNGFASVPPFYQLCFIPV

With Fc1cc(F)c(F)c(-c2ccc(N[C@H]3C[C@@H]4CN(CC5CCOCC5)C[C@@H]4C3)nn2)c1 [Compound 1, (3aR,5s,6aS)-2-((tetrahydro-2H-pyran-4-yl)methyl)-N-(6-(2,3,5-trifluorophenyl)pyridazin-3-yl)octahydrocyclopenta[c]pyrrol-5-amine] the IC50 [1] was 9.8 µM, the “reversal of cataleptic behavior” value ([2]; 0.3 mg/kg) was 26.2 0/0 and the reversal of catalepsy ([2]; 1 mg/kg p.o., rat, p<0.01) was 50.9%. The reversal of catalepsy ([2]; 3 mg/kg p.o., rat, p<0.001) was 65.2% and the “latency to withdraw (forelimbs) compared to vehicle treated control animals” value ([2]; 0.3-3 mg/kg p.o., rat, F3,36=8.7 p<0.001) was “significantly reduced”.
In the case of Fc1cc(F)c(F)c(-c2ccc(N[C@H]3C[C@@H]4CN(Cc5ccccn5)C[C@@H]4C3)nn2)c1 [Compound 2, (3aR,5s,6aS)-2-(pyridin-2-ylmethyl)-N-(6-(2,3,5-trifluorophenyl)pyridazin-3-yl)octahydrocyclopenta[c]pyrrol-5-amine], the IC50 [1] is reported as over 30 µM.
